Measured values: patent US10130615B2, “Benzomorphan analogs and the use thereof” (priority 2014, dated 2018)
Read-outs that look alike come from different tables or passages of the source.

Experiments:
μ-opioid receptor [1] = target: T1, μ-opioid receptor (Homo sapiens, UniProt P35372); test: μ-opioid receptor GTPγS functional assay, U2OS cells; settings: for Emax: read-out: GTPγS μ Emax
μ-opioid receptor [2] = target: T1, μ-opioid receptor; test: cell-based; set-up: purchased Perkin Elmer, Shelton, Conn; settings: U2OS cells; for Emax: read-out: β-Arr2 μ Emax; for EC50: read-out: β-Arr2 μ EC50
κ-opioid receptor [3] = target: T2, κ-opioid receptor (Homo sapiens, UniProt P41145); test: κ-opioid receptor GTPγS functional assay, U2OS cells; type: biochemical; set-up: expressed in transfected cells; host or cells: U-2 OS; settings: U2OS cells; for EC50: read-out: GTPγS κ EC50
T2 sequence (P41145 whole entry): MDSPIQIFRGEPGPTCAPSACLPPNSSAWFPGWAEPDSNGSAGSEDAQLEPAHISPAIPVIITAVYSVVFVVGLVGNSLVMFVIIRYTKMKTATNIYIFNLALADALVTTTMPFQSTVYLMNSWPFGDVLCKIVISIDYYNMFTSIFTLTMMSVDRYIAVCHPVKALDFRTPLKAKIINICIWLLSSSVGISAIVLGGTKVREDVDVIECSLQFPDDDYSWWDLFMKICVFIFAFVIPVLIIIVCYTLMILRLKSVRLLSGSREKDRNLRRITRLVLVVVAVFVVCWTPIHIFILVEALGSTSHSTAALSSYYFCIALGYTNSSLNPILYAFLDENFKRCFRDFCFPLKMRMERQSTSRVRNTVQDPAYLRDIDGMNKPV
Experimental: (§1) Plates were incubated for 30 min at a temperature of about 25° C. with shaking.

κ-opioid receptor [4] = target: T2, κ-opioid receptor; test: κ-opioid receptor radioligand binding assay ([3H]-U69,593); set-up: expressed in transfected cells; host or cells: HEK-293
Experimental: κ-opioid Receptor Binding Assay Procedures: Membranes from recombinant HEK-293 cells expressing the human κ opioid receptor (κ) (cloned in house) were prepared by lysing cells in ice cold hypotonic buffer (2.5 mM MgCl2, 50 mM HEPES, pH 7.4) (10 mL/10 cm dish) followed by homogenization with a tissue grinder/Teflon pestle. Membranes were collected by centrifugation at 30,000×g for 15 min at 4° C. and pellets were resuspended in hypotonic buffer to a final concentration of 1-3 mg/mL. Protein concentrations were determined using the BioRad protein assay reagent with bovine serum albumen as standard. Aliquots of κ receptor membranes were stored at −80° C.
Radioligand dose displacement assays used 0.4 nM [^3H]-U69,593 (GE Healthcare, Piscataway, N.J.; 40 Ci/mmole) with 15 μg membrane protein (recombinant κ opioid receptor expressed in HEK 293 cells; in-house prep) in a final volume of 200 μl binding buffer (5% DMSO, 50 mM Trizma base, pH 7.4). Non-specific binding was determined in the presence of 10 μM unlabeled naloxone or U69,593. All reactions were performed in 96-well polypropylene plates for 1 hr at a temperature of about 25° C.

κ-opioid receptor [5] = target: T2, κ-opioid receptor; test: κ-opioid receptor β-Arr2 activity response, U2OS cells; type: cell-based; set-up: expressed in transfected cells; host or cells: U-2 OS
μ-opioid receptor [6] = target: T1, μ-opioid receptor; test: biochemical; set-up: purchased Perkin Elmer, Shelton, Conn; host or cells: HEK-293 or CHO; settings: HEK-293 or CHO cells; for EC50: read-out: GTPγS μ EC50; for Emax: relative to DAMGO, read-out: GTPγS μ Emax
κ-opioid receptor [7] = target: T2, κ-opioid receptor; test: κ-opioid receptor [35S]GTPγS functional assay, HEK-293 or CHO cells; type: biochemical; set-up: expressed in transfected cells; host or cells: HEK-293; settings: for Emax: relative to U69,593
Experimental: as §1

[8] = HEK-293 or CHO cells, read-out: Ki (nM) Opioid Receptor κ
[9] = U2OS cells, read-out: β-Arr2 κ EC50
[10] = HEK-293 or CHO cells, read-out: GTPγS κ EC50

T1 sequence (P35372 whole entry, species assumed): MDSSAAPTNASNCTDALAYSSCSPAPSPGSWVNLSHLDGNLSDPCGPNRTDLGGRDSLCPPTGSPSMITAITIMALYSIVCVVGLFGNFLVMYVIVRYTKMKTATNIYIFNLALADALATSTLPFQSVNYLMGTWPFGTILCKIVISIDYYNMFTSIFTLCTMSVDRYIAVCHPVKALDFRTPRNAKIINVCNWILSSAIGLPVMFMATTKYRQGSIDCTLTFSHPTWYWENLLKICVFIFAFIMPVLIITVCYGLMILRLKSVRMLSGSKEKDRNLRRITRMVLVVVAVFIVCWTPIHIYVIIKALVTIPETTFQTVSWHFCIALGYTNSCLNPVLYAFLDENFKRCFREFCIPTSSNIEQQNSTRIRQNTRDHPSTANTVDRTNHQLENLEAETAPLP

SMILES | EC50 (μ-opioid receptor [1]) [nM] | Emax (μ-opioid receptor [1]) [%] | Emax (μ-opioid receptor [2]) [%] | Emax (κ-opioid receptor [3]) [%] | EC50 (κ-opioid receptor [3]) [nM] | Ki (κ-opioid receptor [4]; [8]) [nM] | Emax (κ-opioid receptor [5]; U2OS cells) [%] | EC50 (κ-opioid receptor [5]; [9]) [nM] | EC50 (μ-opioid receptor [6]) [nM] | Emax (μ-opioid receptor [6]) [%] | EC50 (μ-opioid receptor [2]) [nM] | EC50 (κ-opioid receptor [7]; [10]) [nM] | Emax (κ-opioid receptor [7]; HEK-293 or CHO cells) [%] | EC50 (κ-opioid receptor [7]) [nM] | Ki (κ-opioid receptor [4]) [nM] | EC50 (κ-opioid receptor [5]) [nM]
C[C@H]1[C@H]2Cc3ccc(O)cc3[C@]1(CCNC(=O)Nc1ccc(C(=O)O)cc1)CCN2CC1CC1 [Compound 2, 4-(3-(2-((2R,6R,11R)-3-(cyclopropyl-methyl)-8-hydroxy-11-methyl-2,3,4,5-tetrahydro-2,6-methanobenzo[d]azocin-6(1H)-yl)ethyl)ureido)benzoic acid] | 1.89 ± 0.18 | 72.5 ± 1.5 | -1.5 | 106 ± 2.52 | 4.11 ± 0.25 | 7.08 ± 0.71 | 28.7 ± 4.67 | 8.4 ± 1.86 |  |  |  |  |  |  |  | 
C[C@H]1[C@H]2Cc3ccc(O)cc3[C@]1(CC(=O)N1CCC(N(C3CC3)S(=O)(=O)c3ccc(Cl)cc3)CC1)CCN2C [Compound 61, 4-chloro-N-cyclopropyl-N-(1-(2-((2R,6S,11R)-8-hydroxy-3,11-dimethyl-2,3,4,5-tetrahydro-2,6-methano-benzo[d]azocin-6(1H)-yl)acetyl)-piperidin-4-yl)benzenesulfonamide] | 146 ± 24.8 | 78.7 ± 0.33 | 7.67 ± 0.73 | 42.7 ± 2.03 | 45.4 ± 6.69 |  | 14.7 ± 1.33 | 7290 ± 2060 | 283 ± 28.8 | 35.7 ± 1.2 | 649 ± 180 |  |  |  |  | 
C[C@H]1[C@H]2Cc3ccc(O)cc3[C@]1(CCNS(C)(=O)=O)CCN2C [Compound 13, N-(2-((2R,6S,11R)-8-hydroxy-3,11-dimethyl-2,3,4,5-tetrahydro-2,6-methanobenzo[d]azocin-6(1H)-yl)ethyl)methanesulfonamide] |  |  | -1 |  |  | 20.5 ± 3.21 |  |  | 285 ± 72 | 25 ± 1.53 |  | 166 ± 1.48 | 30.8 ± 0.19 |  |  | 
COc1ccc2c(c1)[C@]1(CCNC(=O)[C@@H]3CCCN3C(C)=O)CCN(CC3CC3)[C@H](C2)[C@@H]1C [Compound 5, (S)-1-acetyl-N-(2-((2R,6R,11R)-3-(cyclopropylmethyl)-8-methoxy-11-methyl-2,3,4,5-tetrahydro-2,6-methanobenzo[d]azocin-6(1H)-yl)ethyl)pyrrolidine-2-carboxamide] | 629 ± 16.8 | 75.2 ± 1.55 | -1 | 100 ± 4.58 | 63.3 ± 10.2 |  | 58.7 ± 5.93 | 407 ± 65.5 | 468 ± 122 | 16.3 ± 1.44 |  |  |  |  |  | 
C[C@H]1[C@H]2Cc3ccc(O)cc3[C@]1(CCNC(=O)[C@@H]1CCCCN1)CCN2CC1CC1 [Compound 11, (S)-N-(2-((2R,6R,11R)-3-(cyclopropyl-methyl)-8-hydroxy-11-methyl-2,3,4,5-tetrahydro-2,6-methanobenzo[d]azocin-6(1H)-yl)ethyl)piperidine-2-carboxamide] |  |  | -1.5 |  |  | 0.17 ± 0.044 |  |  | 18.3 ± 5.58 | 23 ± 1.38 |  | 1.04 ± 0.059 | 84 ± 3.63 |  |  | 
C[C@H]1[C@H]2Cc3ccc(O)cc3[C@]1(CCNCCc1ccc(S(N)(=O)=O)cc1)CCN2C [Compound 59, 4-(2-((2-((2R,6R,11R)-8-hydroxy-3,11-dimethyl-2,3,4,5-tetrahydro-2,6-methanobenzo[d]azocin-6(1H)-yl)ethyl)amino)ethyl)benzenesulfonamide] | 85.6 ± 9.67 | 74 ± 3.51 | -1 | 112 ± 7.54 | 61.2 ± 10 |  | 1 |  | 369 ± 50.2 | 38 ± 4.18 |  |  |  |  |  | 
COc1ccc2c(c1)[C@]1(CCOCc3ccccc3)CCN(C)[C@H](C2)[C@@H]1C [Compound 48, (2R,6S,11R)-6-(2-(benzyloxy)ethyl)-8-methoxy-3,11-dimethyl-1,2,3,4,5,6-hexahydro-2,6-methanobenzo[d]azocine] | 313 ± 28 | 97 ± 2.08 | 27.7 ± 0.88 | 108 ± 4.51 | 104 ± 15.8 |  | 64.3 ± 9.39 | 16300 ± 7600 | 2240 ± 190 | 53.1 ± 4.36 | 4380 ± 627 |  |  |  |  | 
COc1ccc2c(c1)[C@]1(CCNC(=O)[C@H](C)NC(C)=O)CCN(CC3CC3)[C@H](C2)[C@@H]1C [Compound 4, (S)-2-acetamido-N-(2-((2R,6R,11R)-3-(cyclopropylmethyl)-8-methoxy-11-methyl-2,3,4,5-tetrahydro-2,6-methanobenzo[d]azocin-6(1H)-yl)ethyl)propanamide] | 522 ± 60.1 | 80.2 ± 3.3 | 1.3 ± 0.77 | 97 ± 5.29 | 38.2 ± 4.89 |  | 59.3 ± 4.06 | 403 ± 59.9 |  | 0 |  |  |  |  |  | 
C[C@H]1[C@H]2Cc3ccc(O)cc3[C@]1(CCOc1cncc(C(=O)O)c1)CCN2C [Compound 52, 5-(2-((2R,6S,11R)-8-hydroxy-3,11-dimethyl-2,3,4,5-tetrahydro-2,6-methanobenzo[d]azocin-6(1H)-yl)ethoxy)nicotinic acid] | 68.1 ± 6.57 | 89 ± 4 | 6.77 ± 1.13 | 99 ± 1.73 | 434 ± 39.1 |  | 1 |  | 320 ± 46.9 | 35 ± 1.53 | 403 ± 110 |  |  |  |  | 
CCOC(=O)c1ccc(NC(=O)NCC[C@]23CCN(CC4CC4)[C@H](Cc4ccc(OC)cc42)[C@@H]3C)cc1 [Compound 1, Ethyl 4-(3-(2-((2R,6R,11R)-3-(cyclopropylmethyl)-8-methoxy-11-methyl-2,3,4,5-tetrahydro-2,6-methanobenzo[d]azocin-6(1H)-yl)ethyl)ureido)benzoate] | 164 ± 31.6 | 62 ± 2.08 | 25.5 | 103 ± 3.53 | 5.79 ± 0.56 |  | 44.2 ± 4.05 | 63.8 ± 7.23 | 4.21 ± 0.67 | 27.8 ± 0.85 |  | 33.4 ± 2.26 | 78.3 ± 0.91 |  |  | 
C[C@H]1[C@H]2Cc3ccc(O)cc3[C@]1(CCN1CCS(=O)(=O)CC1)CCN2C [Compound 10, 4-(2-((2R,6R,11R)-8-hydroxy-3,11-dimethyl-2,3,4,5-tetrahydro-2,6-methanobenzo[d]azocin-6(1H)-yl)-ethyl)thiomorpholine 1,1-dioxide] |  |  | 2.83 ± 0.27 |  |  | 77 ± 2.02 | 17.2 ± 0.97 | 4660 ± 1720 | 133 ± 16.1 | 51 ± 1.08 | 129 ± 34.4 | 516 ± 33.9 | 26.6 ± 1.52 |  |  | 
C[C@H]1[C@H]2Cc3ccc(O)cc3[C@]1(CCO)CCN2C [Compound 12, (2R,6S,11R)-6-(2-hydroxyethyl)-3,11-dimethyl-1,2,3,4,5,6-hexahydro-2,6-methanobenzo[d]azocin-8-ol] |  |  | 8.83 ± 0.44 |  |  |  | 12.7 ± 1.57 |  | 237 ± 36.2 | 58.2 ± 1.65 | 386 ± 89.5 |  | 37.1 ± 1.43 | 344 ± 32.6 | 22.4 ± 3.57 | 5520 ± 4650
COc1ccc2c(c1)[C@@]1(CCO)CCN(CC3CC3)[C@@H](C2)[C@H]1C [Compound 46, 2-((2S,6R,11S)-3-(cyclopropylmethyl)-8-methoxy-11-methyl-2,3,4,5-tetrahydro-2,6-methanobenzo[d]azocin-6(1H)-yl)ethan-1-ol] |  |  |  |  |  |  |  |  |  |  |  |  |  |  | 3580 ± 457 | 
C[C@H]1[C@H]2Cc3ccc(O)cc3[C@]1(CCN1CCC(N(C3CC3)S(=O)(=O)c3ccc(Cl)cc3)CC1)CCN2C [Compound 58, 4-chloro-N-cyclopropyl-N-(1-(2-((2R,6R,11R)-8-hydroxy-3,11-dimethyl-2,3,4,5-tetrahydro-2,6-methanobenzo-[d]azocin-6(1H)-yl)ethyl)piperidin-4-yl)-benzenesulfonamide] | 20.3 ± 1.82 | 98 ± 2 | 77.7 ± 7.06 | 60 ± 1 | 11 ± 1.59 |  | 80.3 ± 7.75 | 8900 ± 1620 | 179 ± 12.7 | 53.3 ± 2.96 | 2140 ± 586 |  |  |  |  | 
